Here are results for one compound from ChEMBL document CHEMBL1146424, “New Steroidal Alkaloids from the Roots of Buxus sempervirens” (1997).

The subject of assay [1] is Salmonella typhi. Kind of assay: Antibacterial activity against Salmonella typhi at 200 ug/100 uL by agar well diffusion assay. The assay is classed as functional, organism-based. The following applies: Salmonella enterica subsp. enterica serovar Typhi. (Agar diffusion results depend on both activity and mobility in agar.)
The test system of assay [2] is Proteus mirabilis. Kind of assay: Antibacterial activity against Proteus mirabilis at 200 ug/100 uL by agar well diffusion assay. The assay is classed as functional, organism-based.
Assay [3] deals with Microsporum canis. Put plainly: Antifungal activity against Microsporum canis at […] after 7 days by tube dilution method. The assay is classed as functional, organism-based.
The test system of assay [4] is Lemna minor. Put plainly: Phytotoxicity against Lemna minor L. at 50 ppm. In kind it is functional.
Assay [5] relates to Lemna minor. Put plainly: Phytotoxicity against Lemna minor L. at 500 ppm. In kind it is functional.
For assay [6], the system named is Escherichia coli. Kind of assay: Antibacterial activity against Escherichia coli at 200 ug/100 uL by agar well diffusion assay. In kind it is functional, organism-based.
The subject of assay [7] is Proteus vulgaris. Put plainly: Antibacterial activity against Proteus vulgaris at 200 ug/100 uL by agar well diffusion assay. The assay is classed as functional, organism-based.
Assay [8] relates to Shigella flexneri. Kind of assay: Antibacterial activity against Shigella flexnerii at 200 ug/100 uL by agar well diffusion assay. The assay is classed as functional, organism-based.
The subject of assay [9] is Stachybotrys chartarum. Put plainly: Antifungal activity against Stachybotrys atra at […] after 7 days by tube dilution method. The assay is classed as functional, organism-based.
The test system of assay [10] is Lemna minor. Put plainly: Phytotoxicity against Lemna minor L. at 5 ppm. The assay is classed as functional.
Assay [11] relates to Epidermophyton floccosum. Kind of assay: Antifungal activity against Epidermophyton floccosum at […] after 7 days by tube dilution method. In kind it is functional, organism-based.

The source made the active and inactive calls. The calls are words filed in the database; no cut-off is given here.

Turning to `C[C@@H]([C@H]1[C@H](O)C[C@@]2(C)[C@@H]3CC[C@@H]4C(=CC[C@H](NC(=O)c5ccccc5)C4(C)C)CC3=CC[C@]12C)N(C)C` [16ALPHA-HYDROXY-NA-BENZOYLBUXADINE], the result in [1], in [2], in [3], in assay [6], in assay [7] and in assay [8] was Active. Also, the result in [9] and in assay [11] was Active. For the same compound, the Activity in assay [4] was 28.6%; in [5] it was 46%; in assay [10] it was 20.3%.
